Patent US20170216360A1, “METHODS AND COMPOSITIONS FOR IMPROVING HOMING OF CELLS INCLUDING MESENCHYMAL STEM CELLS” (SANOFI, priority 2014, published 2017)
Entries after “also recorded” stand apart in the source; their conditions may differ. Structures can show the parent of a compound that is named as a salt. Where two headings read alike, the source gives them in different places.

Columns and labels:
[1] = test system: CD11a surface expression on huMSCs; test: Medium throughput screen: CD11a surface expression on MSCs, PE-CY5 anti-CD11a antibody, laser-scanning fluorescence microplate cytometer; assay type: cell-based, human; design: key to Cell surface ligand CD11a (induction of expression): NA = negative activity result; A = positive activity result; settings: pretreatment of huMSCs; for EC50: read-out: Cell Surface Marker ED 50 (M) Molar Concentration of Compound for CD11a Expression
Method: An in vitro screen was performed for compounds that induce surface expression on huMSCs of the marker CD11a (LFA-1). This screen may be considered a medium throughput screen. Certain compounds that induce the increase of this surface marker were then selected for testing in an in vitro firm adhesion assay and/or in vivo systemic administration in an animal model of inflammation. The surface expression screen involved fluorophore-conjugated antibodies to the respective markers. Following pretreatment with the test compounds, samples of cells were incubated with the labeled antibodies for detection of surface marker expression and change relative to a reference level of untreated cells or negative control samples or values. Cells were pretreated with a concentration (3 μM) of each small molecule compound for 24 hours, followed by incubation with a fluorophore-conjugated anti-marker antibody to detect expression on MSC surface. Surface expression levels of marker ligands were then evaluated by laser-scanning fluorescence microplate cytometer. […] Cell viability in response to compounds was also tested to assess whether molecules have toxicity after 24 hours of pretreatment. Testing was performed on two different huMSC sources representing cells from different donors.
Further details of the screening approach are provided as follows. A unique single batch of bone marrow-derived MSC cells was prepared for the entire screening campaign by cell amplification using CellStack flasks and freezing in separate vials at passage P5. […] For each run, vials were thawed and cells directly seeded on 384-well plates at 3,000 cells per well in MSCGM medium. Following an overnight incubation, cells were treated with the indicated concentrations of compounds for 24 hours. Cells were washed in PBS, 3% BSA and incubated for one hour with PE-CY5-conjugated anti-CD11a monoclonal antibody (clone HI111). Expression of CD11a at the cell surface was detected using the Acumen Explorer, a laser-scanning fluorescence microplate cytometer after two PBS washings. HL-60 cells seeded at 10,000 cells per well and treated with 100 nM phorbol 12-myristate 13-acetate (PMA) for 24 h to induce cell adhesion were used as a positive control in each 384-well plate. Positive compounds were counter-screened for their auto-fluorescence by measuring the signal in the absence of antibody.
A single batch of bone marrow-derived MSC was prepared for the entire screening campaign by cell amplification using CellStack flasks and freezing in separate vials at passage P5. […] For each run, vials were thawed and cells directly seeded on 384-well plates at 3,000 cells per well in MSCGM medium. Following an overnight incubation, cells were pretreated with a low (0.1 μM) and high (3 μM) concentration of the compounds for 24 h. 9,000 cpds were tested in 112 assay plates, each 384-well plate contained 320 cpds (from column 5 to 24), one column for Max (Column2, HL60 cells) and one column for Min (Column4, MSC cells). Cells were washed in PBS, 3% BSA and incubated for one hour with PE-CY5-conjugated anti-CD11a monoclonal Ab (BD Biosciences). Expression of CD11a at the cell surface was detected after two PBS washes using the Acumen Explorer equipment, a laser-scanning fluorescence microplate cytometer. HL-60 cells (seeded at 10,000 cells per well and treated with 100 nM phorbol 12-myristate 13-acetate (PMA) for 24 h to induce cell adhesion) were used as a positive control in each 384-well plate. Positive compounds were counter-screened for their auto-fluorescence by measuring the signal in the absence of Ab. Shown in FIG. 4 is the global screening data. Using the Max, Min columns, we have calculated Max/Min ratio generated with CD11a Ab for each assay plate (signal/background ration in green columns was calculated for each of the 112 assay plates). […]

[2] = test system: LPS-induced inflamed mouse ear; test: In vivo MSC homing to LPS-induced inflamed ear after systemic infusion, intravital microscopy; design: key to In vivo functional assay (homing): NA = negative activity result; A = positive activity result; settings: for Increase of MSC homing to inflamed ear (%): relative to untreated cells
Method: C57BL/6 mice (Charles River Laboratories, Wilmington, Mass.) were anesthetized with ketamine/xylazine and their ears shaved 24 h prior to cell infusion. To induce an inflammatory response, 30 μg of E. coli lipopolysaccharide (LPS, Sigma, St. Louis, Mo.) in 50 μL saline was injected into the pinna of the left ear, with 50 μL 0.9% saline injected into the right ear as a control. For in vivo dye sensitivity validation, 1×10e6 cells of each stain were suspended in 150 μL PBS (pH 7.4) and injected by retro-orbital vein infusion.
To evaluate the minimum number of cells needed for a reproducible response, each mouse (n=4) received a range of cell doses (10,000, 50,000, 100,000, or 500,000) each of cells stained with Dil or DiD with a dye switch (i.e., dyes used for experimental and control cells were alternated to prevent bias based on the dyes that were used). To evaluate the impact of small molecule hit pre-treatment on MSC homing to the inflamed ear, MSCs were incubated with 3 μM of the small molecule hit or 0.1% DMSO as a control for 24 h before staining and in vivo administration. To highlight the vasculature, 50 μL of 10 mg/mL FITC-dextran ([…]; Sigma, St. Louis, Mo.) was injected retro-orbitally prior to imaging.
In vitro staining and in vivo homing of stained MSCs to the skin was imaged noninvasively in real time using a custom-built video-rate laser-scanning confocal microscope designed specifically for live animal imaging. For in vivo imaging, the mouse ear was positioned under a coverslip with methylcellulose gel and images acquired at 30 frames per second at a depth up to 200 μm using a 60×1.0NA water immersion objective lens (Olympus, Center Valley, Pa.). DiO labeled MSCs were excited with a 491 nm continuous wave (CW) laser (Cobalt, Stockholm, Sweden), and detected through a 520±20 nm bandpass filter (Semrock, Inc., Rochester, N.Y.). Dil labeled MSCs were excited with a 561 nm CW laser (Coherent, Inc., Santa Clara, Calif.) and detected through a 593 nm±40 nm filter (Omega Optical, Brattleboro, Vt.). DiD labeled MSCs were excited with a 635 nm CW laser (Coherent, Inc., Santa Clara, Calif.) and detected through a 695 nm±27.5 nm band pass filter (Omega Optical, Brattleboro, Vt.). DiR labeled MSCs were excited using a femtosecond Ti:Sapphire Maitai source for single photon excitation at 750 nm (Spectra Physics, Santa Clara, Calif.) and collected through a 785 nm±31 nm band pass filter (Omega Optical, Brattleboro, Vt.).
For quantification, the average number of cells in 20 representative imaging locations across the inflamed region was counted in each mouse. Cells were defined as having a diameter from 10-30 μm to eliminate debris and clumps from analysis, and a primary channel intensity greater than 2 to eliminate autofluorescent events. The average relative detection sensitivity (ratio of Dil/DiD counts) determined in the overall dye efficiency experiments were used to scale the counts for DiD stained cells. […] For multiple comparisons, Tukey's HSD test was used. Error bars in graphs represent standard error, and statistical significance is denoted by * p<0.05.

[3] = test system: human mesenchymal stem cells; test: In vitro functional firm adhesion assay of cells (Table 3, coating not stated); assay type: cell-based; design: key to Result, in vitro Firm Adhesion: NA = negative activity result; A = positive activity result; settings: for Result, in vitro Firm Adhesion: pretreated huMSCs; for Firm adhesion, Percent increase: relative to untreated and/or negative control MSCs
Method: (§1) Cell adhesion experiments were performed using Bioflux1000 (FluxionBio), allowing accurate control over shear flow. A special 48-well plate was used, in which a microfluidic channel (350 μm×70 μm) connects each pair of adjacent wells (termed inlet and outlet wells). The plate was placed under vacuum and the channels were coated from the inlet with recombinant human E-selectin (5 μg/mL) or ICAM-1 (5 μg/mL) and incubated at 37° C. for 1 h. Prior to introducing the cells into the channel, a wash with PBS−/− from the outlet well was performed for 5 min. Compound-pretreated MSCs were introduced into the channel, followed by attachment period of 2 minutes (no flow applied during the attachment period). Attached cells were then subjected to increasing shear flow, ranging from 0.25 dynes/cm^2 for up to 10 dynes/cm^2. Images were acquired using the Montage software and cell adhesion to the coated channels following subjection to shear flow was examined. See also disclosure elsewhere herein.
1. Obtain preferred channel coating (protein/cell monolayer). 2. Prepare cell suspension (same concentrations detailed above for different cell types). 3. Add 50 μl of cell suspension to outlet well. 4. Introduce cells into channel by applying shear force of 2 dynes/cm^2 (cells should be observed within 10-15 sec flowing from outlet to inlet). 5. Once cells are observed in the channel, stop the flow and allow the introduced cells to sit for different time periods ranging from 30 seconds to 5 minutes. 6. Following this settling period, apply shear force starting from 0.5 dynes/cm^2 up to 10 dynes/cm^2 and acquire videos using stream acquisition. 7. Cell quantification is then performed using the Montage software—percentage of cells adhered, rolled or washed away after applying shear flow should be quantified.

[4] = test system: CD11a surface expression on MSCs; test: Flow cytometry of CD11a surface expression on MSCs (FITC-CD11a Ab); assay type: cell-based, human; settings: 3 μM for 24 h
Method: MSCs were pretreated with DMSO vehicle control (DMSO-MSC, 0.1%) or ruboxistaurin (Rub-MSC, 3 μM) for 24 h and CD11a expression levels were assessed via flow cytometry (cells were stained with either FITC-CD11a Ab or isotype control, representative data from n=3 independent experiments).

[5] = test system: MSC firm adhesion to ICAM-1-coated surface; test: ICAM-1 firm adhesion assay under shear flow, with antibody blocking; assay type: cell-based, human; settings: 3 μM for 24 h
Method: as §1
Pre-confluent MSCs were incubated for 24 hours with the indicated small molecules (3 μM). MSCs were than detached, washed and incubated for 30 minutes with an antibody reagent. The following antibodies are used: anti-human CD11a (clone: HI111), anti-human CD90 (clone: MAB2067), mouse anti-human CD11a (clone: TS1/22), and mouse IgG1 isotype control. Cells were then introduced into the channel and given 2 minutes to adhere before being subjected to increasing shear flow for a firm adhesion assay on a microfluidic channel coated with E-selectin or ICAM-1.

EC50 ([1]; Homo sapiens)	Compound	Cell surface ligand CD11a (induction of expression) [1]	Firm adhesion, Percent increase [3]	further results
1.68e-05 M	CN1C(=O)C(c2c[nH]c3ccccc23)=C(c2cn(C)c3ccccc23)C1=O [Compound 1905, 3-(1H-indol-3-yl)-1-methyl-4-(1-methyl-1H-indol-3-yl)-pyrrole-2,5-dione]	–	–	–
3.19e-06 M	Cn1cc(C2=C(c3cn(C4CCN(Cc5ccccn5)CC4)c4ccccc34)C(=O)NC2=O)c2ccccc21 [Compound 1906, 3-(1-methyl-1H-indol-3-yl)-4-[1-(1-pyridin-2-ylmethyl-piperidin-4-yl)-1H-indol-3-yl]-pyrrole-2,5-dione, reference compound]	–	–	–
–	Cn1cc(C2=C(c3cn(C)c4ccccc34)C(=O)NC2=O)c2ccccc21 [Compound 1912, 3,4-bis-(1-methyl-1H-indol-3-yl)-pyrrole-2,5-dione]	A	–	–
–	Cn1cc(C2=C(c3c4n(c5ccccc35)CCC(CN)C4)C(=O)NC2=O)c2ccccc21 (stereo not shown) [Compound 1919, 3-(8-aminomethyl-6,7,8,9-tetrahydro-pyrido[1,2-a]indol-10-yl)-4-(1-methyl-1H-indol-3-yl)-pyrrole-2,5-dione]	A	81%	Increase of MSC homing to inflamed ear (%) [2]: 45%; In vivo functional assay (homing) ([2]; systemic administration of pretreated huMSCs): A; Result, in vitro Firm Adhesion [3]: A; EC50 [1]: 2.75e-06 M
1.75e-05 M	O=C1C(c2c[nH]c3ccccc23)=C(c2c[nH]c3ccccc23)C(=O)N1Cc1ccccc1 [Compound 1921, 1-benzyl-3,4-bis-(1H-indol-3-yl)-pyrrole-2,5-dione]	A	–	–
–	CN1CCCC1CCn1cc(C2=C(c3c[nH]c4ccccc34)C(=O)NC2=O)c2ccccc21 (stereo not shown) [Compound 1928, 3-(1H-indol-3-yl)-4-{1-[2-(1-methyl-pyrrolidin-2-yl)-ethyl]-1H-indol-3-yl}-pyrrole-2,5-dione]	A	–	–
–	CN(C)CCCn1cc(C2=C(c3c[nH]c4ccccc34)C(=O)NC2=O)c2ccccc21 [Compound 1934, 3-[1-(3-dimethylamino-propyl)-1H-indol-3-yl]-4-(1H-indol-3-yl)-pyrrole-2,5-dione]	A	–	–
> 3e-05 M	CN(C)C[C@@H]1CCn2cc(c3ccccc32)C2=C(C(=O)NC2=O)c2cn(c3ccccc23)CCO1 [Ruboxistaurin, ruboxistaurin, reference compound]	–	0% (negative response)	CD11a surface expression on MSCs [4]: did not increase; also recorded: does not upregulate; MSC firm adhesion to ICAM-1-coated substrates, result in words [5]: did not improve

Compound	EC50 ([1]; Homo sapiens)	Cell surface ligand CD11a (induction of expression) [1]	Firm adhesion, Percent increase [3]	further results
CN(C)CC1CCn2c(c(C3=C(c4cn(C)c5ccccc45)C(=O)NC3=O)c3ccccc32)C1 (stereo not shown) [Compound 1933, 3-(8-dimethylaminomethyl-6,7,8,9-tetrahydro-pyrido[1,2-a]indol-10-yl)-4-(1-methyl-1H-indol-3-yl)-pyrrole-2,5-dione hydrochloride]	2.49e-05 M	A	75%	Increase of MSC homing to inflamed ear (%) [2]: <10%; Result, in vitro Firm Adhesion [3]: A
